Results as given in US20230033047A1, “Estrogen Metabolite Levels And Cancer Driver Gene Mutations In Lung Cancer Risk Stratification And Treatment” (Institute For Cancer Research d/b/a The Research Institute …, priority 2020, published 2023).
Entries after “also recorded” stand apart in the source; their conditions may differ. Marks after values point to notes of the source that are not given here.

Assays:
Type in all cases: cell-based, human
HBEC-65KT cells [1] = assay: Soft agar assay (anchorage independent growth, transformation) of HBEC-65KT cells; conditions: for # Established: Experiment 2, picked clones established in culture
Description: (§1) Three immortalized human bronchial epithelial cell lines (HBEC-57KT, -65KT, and -66KT) were used (see, Ramirez et al., Cancer Res., 2004, 64, 9027-34). […] Cells were immortalized by over-expressing Cdk4 and human telomerase reverse transcriptase (hTERT) to emulate two of the earliest events in lung cancer pathogenesis: abrogation of the p16/RB cell cycle checkpoint pathway and bypass of replicative senescence. HBEC-57KT, -65KT, and -66KT cells were maintained in keratinocyte serum-free (KSF) media containing 50 μg/ml bovine pituitary extract and 5 ng/ml epidermal growth factor. Initially, cells were chronically treated with 0.1% DMSO (vehicle) or 100 nM E2, 4-OHE1 or 4-OHE2. Subsequently, a broader dose range was tested, including 2, 10, 50, or 100 nM […]1, or 2-OHE2. Exposure times ranged from a minimum of 18 weeks and a maximum of 40 weeks. An aliquot from each cell line and treatment was banked in liquid nitrogen every 1-2 weeks. […] Natl. Acad. Sci. USA, 1978, 75, 4001-5). Briefly, each well of a 12-well plate was coated with 0.6% agarose/KSF media. Wells were overlaid with 0.3% agarose/KSF media containing 5000 HBEC-KT cells. RKO colon carcinoma cells were included as a positive control. Each assay was performed in triplicate. After 4-6 weeks, plates were either stained with crystal violet for counting or used to isolate viable clones. Transformed clones were picked using a p200 pipette tip, placed back in culture under pre-treatment conditions in KSF media, and expanded for future analyses.

HBEC-66KT cells = assay: Soft agar assay (anchorage independent growth, transformation) of HBEC-66KT cells; conditions: chronic treatment, data not shown
Description: Three immortalized human bronchial epithelial cell lines (HBEC-57KT, -65KT, and -66KT) were used (see, Ramirez et al., Cancer Res., 2004, 64, 9027-34). […] Cells were immortalized by over-expressing Cdk4 and human telomerase reverse transcriptase (hTERT) to emulate two of the earliest events in lung cancer pathogenesis: abrogation of the p16/RB cell cycle checkpoint pathway and bypass of replicative senescence. HBEC-57KT, -65KT, and -66KT cells were maintained in keratinocyte serum-free (KSF) media containing 50 μg/ml bovine pituitary extract and 5 ng/ml epidermal growth factor. Initially, cells were chronically treated with 0.1% DMSO (vehicle) or 100 nM E2, 4-OHE1 or 4-OHE2. Subsequently, a broader dose range was tested, including 2, 10, 50, or 100 nM […]1, or 2-OHE2. Exposure times ranged from a minimum of 18 weeks and a maximum of 40 weeks. An aliquot from each cell line and treatment was banked in liquid nitrogen every 1-2 weeks. At specific timepoints (18, 24 and 34 weeks post-treatment), each treated cell line was assayed for transformation by assessing anchorage independent growth in soft agar according to the method of de Larco and Todaro (see, de Larco et al., Proc. Natl. Acad. Sci. USA, 1978, 75, 4001-5). Briefly, each well of a 12-well plate was coated with 0.6% agarose/KSF media. Wells were overlaid with 0.3% agarose/KSF media containing 5000 HBEC-KT cells. RKO colon carcinoma cells were included as a positive control. Each assay was performed in triplicate. After 4-6 weeks, plates were either stained with crystal violet for counting or used to isolate viable clones. Transformed clones were picked using a p200 pipette tip, placed back in culture under pre-treatment conditions in KSF media, and expanded for future analyses.

HBEC-57KT cells [2] = assay: Soft agar assay (anchorage independent growth, transformation) of HBEC-57KT cells; conditions: for transformation, ability to grow in soft agar: 2, 10, 50, or 100 nM for 27 weeks, FIG. 3; for colony formation / transformation in soft agar: 35 weeks of chronic treatment; for # Established: Experiment 2, picked clones established in culture
Description: as §1

HBEC-65KT cells [3] = assay: Comet assay of DNA damage in HBEC-65KT cells; conditions: HBEC-65KT (high-activity CYP1B1, low-activity COMT); short-term treatment; FIG. 4
Description: (§2) DNA was extracted from expanded clones for sequencing. The mutation status of 50 oncogenic driver genes was examined in transformed cells by next-gen sequencing using an AmpliSeq Illumina for Cancer Hotspot Panel v2. Data were analyzed using Illumina software. DNA damage induced by short-term treatment with estrogens was measured using the Comet assay (see, Mozaffarieh et al., Mol. Vis., 2008, 14, 1584-8). Other assays, however, may be used as desired.

HBEC-57KT cells [4] = assay: Comet assay of DNA damage in HBEC-57KT cells; conditions: HBEC-57KT (high-activity CYP1B1, low-activity COMT); short-term treatment; FIG. 4
Description: as §2

[5] = Experiment 2, chronic treatment, 100 nM, soft agar
[6] = Experiment 3, 18 weeks treated, colonies diffuse, did not grow once picked (not fully transformed)

| SMILES | # Colonies (HBEC-65KT cells [1]; [5]) | # Established (HBEC-65KT cells [1]) | # Colonies (HBEC-65KT cells [1]; Experiment 3, 35 weeks treated) | transformation (HBEC-66KT cells) | transformation, ability to grow in soft agar (HBEC-57KT cells [2]) | colony formation / transformation in soft agar (HBEC-57KT cells [2]) | # Colonies (HBEC-57KT cells [2]; [5]) | # Established (HBEC-57KT cells [2]) | # Colonies (HBEC-57KT cells [2]; Experiment 3, 35 weeks treated) | colony formation in soft agar (HBEC-65KT cells [1]; 35 weeks of chronic treatment) | # Colonies (HBEC-65KT cells [1]; Experiment 3, 18 weeks treated) | DNA damage, comet tail moment vs. DMSO (HBEC-65KT cells [3]) | DNA damage, comet tail moment vs. DMSO (HBEC-57KT cells [4]) | # Colonies (HBEC-57KT cells [2]; [6]) |
| --- | --- | --- | --- | --- | --- | --- | --- | --- | --- | --- | --- | --- | --- | --- |
| C[C@]12CC[C@@H]3c4ccc(O)c(O)c4CC[C@H]3[C@@H]1CCC2=O [4-OHE1] | 0 | 0 | 0 | None of the tested treatments; also recorded: negative for transformation | can transform HBEC-57KT cells | also transformed HBEC-57KT cells | 0 | 0 | 5 (small) |  |  |  |  |  |
| C[C@]12CC[C@@H]3c4ccc(O)cc4CC[C@H]3[C@@H]1CC[C@@H]2O [E2, 17β estradiol] | 11 | 4 | 34 | None of the tested treatments; also recorded: negative for transformation | can transform HBEC-57KT cells | low level colony formation | 13 | 6 | 30 | low level colony formation | 0 | induce DNA damage | induce DNA damage | 0 |
| C[C@]12CC[C@@H]3c4cc(O)c(O)cc4CC[C@H]3[C@@H]1CCC2=O [2-OHE1] |  |  |  |  | can transform HBEC-57KT cells |  |  |  |  |  |  |  |  |  |
| C[C@]12CC[C@@H]3c4ccc(O)c(O)c4CC[C@H]3[C@@H]1CC[C@@H]2O [4-OHE2] | 0 | 0 | 0 | None of the tested treatments; also recorded: negative for transformation | can transform HBEC-57KT cells | efficient colony formation | 40 | 11 | 54 |  |  | induce DNA damage | induce DNA damage | 4* |
| C[C@]12CC[C@@H]3c4cc(O)c(O)cc4CC[C@H]3[C@@H]1CC[C@@H]2O [2-OHE2] |  |  |  |  | can transform HBEC-57KT cells |  |  |  |  |  |  |  |  |  |
